Molecular target: galectin-3 (Homo sapiens, UniProt P17931)
Assay: GPN-induced galectin-3 accumulation (puncta) in JIMT-1 breast cancer cells
Assay type: cell-based
Set-up: In the intracellular assay, in contrast, only endogenous galectin was present; endogenous in cells; host or cells: JIMT-1 breast cancer cells
Procedure: The total number of galectin-3 puncta and nuclei in the microscopy images were quantified using the software ImageJ.
Cells were seeded in multi-well plates with sterile glass coverslips placed in each well and allowed to adhere to the cell culture surface for at least 24 hours. Then the cells were pre-treated with the different galectin-3 inhibitors at different concentrations (or DMSO as control) for 15 minutes or 24 hours followed by addition of the lysosomal damaging peptide GPN[42] and incubated another 13 minutes, with the inhibitors still present. The 13-minute incubation with GPN and 15-minute pre-incubation with inhibitors were done in DMEM/Ham’s F12 medium with 15 mM HEPES buffer (without serum), whereas the 24-hour incubation with inhibitors were performed in fully supplemented DMEM/Ham’s F12 medium (as described under Cell culture).
After treatment with GPN, the cells were fixed in 3.7% (v/v) formaldehyde in phosphate-buffered saline (PBS) for 15 minutes, permeabilized and blocked using 1% (v/v) TWEEN 20 and 5% (w/v) BSA in PBS for 30 minutes, then incubated with primary and secondary antibodies for one hour each (washed with PBS in between). Primary and secondary antibodies for galectin-3 staining were a rat anti-mouse galectin-3 IgG antibody[50],[51] […] All antibodies were diluted in 0.05% TWEEN 20 and 5% BSA in PBS. […] The coverslips were mounted on glass slides using Mowiol® 4–88 and left at 8 °C overnight before further examination. For imaging of the cells, a LSM-510 confocal laser scanning microscope (Carl Zeiss Microscopy GmbH, Oberkochen, Germany), equipped with a Hamamatsu R6357 photomultiplier (Hamamatsu Photonics K.K., Hamamatsu, Japan), was used. […] Maximum intensity projections of each picture obtained were analyzed with ImageJ 1.47 v (Rasband, W.S., ImageJ, U. S. National Institutes of Health, Bethesda, Maryland, USA) to quantify the number of galectin-3 dots and the number of nuclei in each picture. The quantification of particles (i.e. galectin-3 puncta/nucleus) was carried out using batch processing in the software, where a single macro (including parameters such as image thresholds, particle size and circularity) was used for all images obtained from a single experiment, this to reduce user bias and time consumption.

Sequence of galectin-3 (P17931 whole entry): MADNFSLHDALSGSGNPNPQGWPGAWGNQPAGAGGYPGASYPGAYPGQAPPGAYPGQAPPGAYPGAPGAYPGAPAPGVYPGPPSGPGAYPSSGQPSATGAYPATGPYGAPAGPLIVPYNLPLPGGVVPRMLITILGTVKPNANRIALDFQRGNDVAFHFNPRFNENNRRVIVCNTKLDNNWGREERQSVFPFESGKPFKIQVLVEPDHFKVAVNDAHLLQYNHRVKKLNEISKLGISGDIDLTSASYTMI

Q: What does the source list for `OC[C@H]1O[C@@H](S[C@@H]2O[C@H](CO)[C@H](O)[C@H](n3cc(-c4cccc(F)c4)nn3)[C@H]2O)[C@H](O)[C@@H](n2cc(-c3cccc(F)c3)nn2)[C@H]1O` [compound 1]?
A: inhibition of galectin-3 accumulation (extent) (15 minutes pre-treatment, high concentrations 50–100 µM): complete inhibition of galectin-3 accumulation could not be reached; inhibition of galectin-3 accumulation (extent) (24 hours pre-treatment, around 1–5 µM): nearly complete inhibition
